Test results published in ChEMBL document CHEMBL5705903, “A DNA Hypomethylation Signature Predicts Antitumor Activity of LSD1 Inhibitors in SCLC” (Cancer Cell, 2015).
Calls of active or inactive are those of the source. The rule behind the calls is not given here.

How the values were obtained:
[1] = Effect on cleaved PARP level in human NCI-H889 cells assessed as relative expression at 1000 nM measured after 7 days by Western blot analysis (reference value: 0.34); type: functional; settings: time 7 day
[2] = Effect on cleaved PARP level in human NCI-H146 cells assessed as fold change at 10 nM measured after 14 days by Western blot analysis (reference value: 1.00); type: functional; settings: time 14 day
[3] = tested on: NCI-H526; experiment: In vivo inhibition of LSD1 in human NCI-H526 cells xenografted in nude mouse assessed as change in TOX3 gene expression measured after 24 hrs post single administration by qRT-PCR analysis; type: functional, organism-based; settings: dose 0.06-135 mg/kg
[4] = Effect on cleaved PARP level in human NCI-H2171 cells assessed as relative expression at 100 nM measured after 14 days by Western blot analysis (reference value: 0.01); type: functional; settings: time 14 day
[5] = Effect on cleaved PARP level in human NCI-H1694 cells assessed as fold change at 100 nM measured after 10 days by Western blot analysis (reference value: 1.00); type: functional; settings: time 10 day
[6] = tested on: NCI-H526; experiment: In vivo inhibition of LSD1 in human NCI-H526 cells xenografted in nude mouse assessed as change in ZEB1 gene expression measured after 24 hrs post single administration by qRT-PCR analysis; type: functional, organism-based; settings: dose 0.06-135 mg/kg
[7] = Effect on cleaved PARP level in human NCI-H510 cells assessed as relative expression at 100 nM measured after 7 days by Western blot analysis (reference value: 0.24); type: functional, NCI-H510A; settings: time 7 day
[8] = Effect on cleaved PARP level in human NCI-H524 cells assessed as relative expression at 10 nM measured after 10 days by Western blot analysis (reference value: 0.95); type: functional; settings: time 10 day
[9] = AUC (0 to infinity) in mouse tumor at 5 mg/kg, po by HPLC/MS/MS analysis; type: ADME, organism-based, Neoplasm
[10] = Effect on cleaved PARP level in human NCI-H524 cells assessed as relative expression at 100 nM measured after 14 days by Western blot analysis (reference value: […]); type: functional; settings: time 14 day
[11] = Effect on cleaved PARP level in human NCI-H146 cells assessed as relative expression at 1000 nM measured after 10 days by Western blot analysis (reference value: 0.27); type: functional; settings: time 10 day
[12] = tested on: NCI-H526; experiment: In vivo inhibition of LSD1 in human NCI-H526 cells xenografted in nude mouse assessed as change in KIAA1644 gene expression administrated daily for 5 days by qRT-PCR analysis; type: functional, organism-based; settings: dose 0.02-135 mg/kg, time 5.0 day
[13] = Effect on cleaved PARP level in human NCI-H146 cells assessed as fold change at 10 nM measured after 10 days by Western blot analysis (reference value: 1.00); type: functional; settings: time 10 day
[14] = tested on: NCI-H526; experiment: Effect on global H3K4me2 level in human NCI-H526 cells at 10 to 1000 nM measured after 24 hrs by Western blot analysis; type: functional, cell-based; settings: dose 10-1000 nM
[15] = Toxicity in rat assessed as effect on ECG measured for 28 days; settings: in vivo, 672 h, time 28 day
[16] = tested on: NCI-H526; experiment: Effect on genomic redistribution of LSD1 to new sites in human NCI-H526 cells at 1 uM; type: functional, cell-based
[17] = Effect on cleaved PARP level in human NCI-H2171 cells assessed as relative expression at 10 nM measured after 7 days by Western blot analysis (reference value: 0.02); type: functional; settings: time 7 day
[18] = Effect on cleaved PARP level in human NCI-H69 cells assessed as fold change at 10 nM measured after 14 days by Western blot analysis (reference value: 1.00); type: functional; settings: time 14 day
[19] = tested on: NCI-H510A; experiment: Effect on NCAM gene expression in human NCI-H510A cells at 1 uM measured after 4 days by qRT-PCR analysis; type: functional, cell-based; settings: time 4.0 day
[20] = Effect on cleaved PARP level in human NCI-H69 cells assessed as fold change at 100 nM measured after 10 days by Western blot analysis (reference value: 1.00); type: functional; settings: time 10 day
[21] = Effect on cleaved PARP level in human NCI-H69 cells assessed as relative expression at 10 nM measured after 10 days by Western blot analysis (reference value: 0.03); type: functional; settings: time 10 day
[22] = Effect on cleaved PARP level in human COLO-668 cells assessed as relative expression at 1000 nM measured after 14 days by Western blot analysis (reference value: 3.50); type: functional; settings: time 14 day
[23] = Effect on cleaved PARP level in human NCI-H889 cells assessed as relative expression at 1000 nM measured after 10 days by Western blot analysis (reference value: 0.33); type: functional; settings: time 10 day
[24] = Effect on cleaved PARP level in human NCI-H1417 cells assessed as relative expression at 100 nM measured after 7 days by Western blot analysis (reference value: 0.10); type: functional; settings: time 7 day
[25] = Toxicity in mouse xenografted with human NCI-H526 cells assessed as grooming behaviour at 1.5 mg/kg, po administered daily measured for 30 days; type: organism-based; settings: in vivo, 720 h, time 30 day
[26] = Effect on cleaved PARP level in human NCI-H524 cells assessed as relative expression at 10 nM measured after 14 days by Western blot analysis (reference value: […]); type: functional; settings: time 14 day
[27] = tested on: NCI-H526; experiment: In vivo inhibition of LSD1 in human NCI-H526 cells xenografted in nude mouse assessed as change in UMODL1 gene expression measured after 24 hrs post single administration by qRT-PCR analysis; type: functional, organism-based; settings: dose 0.06-135 mg/kg
[28] = AUC (0 to last) in mouse tumor at 5 mg/kg, po by HPLC/MS/MS analysis; type: ADME, organism-based, Neoplasm
[29] = tested on: NCI-H526; experiment: In vivo inhibition of LSD1 in human NCI-H526 cells xenografted in nude mouse assessed as change in ANXA6 gene expression administrated daily for 5 days by qRT-PCR analysis; type: functional, organism-based; settings: dose 0.02-135 mg/kg, time 5.0 day
[30] = Toxicity in dog assessed as effect on hemodynamics measured for 28 days; parameters: species or system Canis lupus familiaris; settings: in vivo, 672 h, time 28 day
[31] = Effect on cleaved PARP level in human NCI-H510 cells assessed as relative expression at 100 nM measured after 10 days by Western blot analysis (reference value: 0.02); type: functional, NCI-H510A; settings: time 10 day
[32] = Effect on cleaved PARP level in human COLO-668 cells assessed as relative expression at 100 nM measured after 14 days by Western blot analysis (reference value: 3.50); type: functional; settings: time 14 day
[33] = tested on: SHP77; experiment: Antitumor activity against human SHP77 cells xenografted in nude mouse assessed as tumor growth inhibition at […] mg/kg, po administered daily measured twice weekly relative to control; type: functional; settings: read-out: TGI
[34] = Effect on cleaved PARP level in human NCI-H510 cells assessed as fold change at 10 nM measured after 14 days by Western blot analysis (reference value: 1.00); type: functional, NCI-H510A; settings: time 14 day
[35] = Effect on cleaved PARP level in human NCI-H889 cells assessed as fold change at 100 nM measured after 10 days by Western blot analysis (reference value: 1.00); type: functional; settings: time 10 day
[36] = tested on: NCI-H1417; experiment: Antitumor activity against human NCI-H1417 cells xenografted in nude mouse assessed as tumor growth inhibition at 1.5 mg/kg, po administered daily measured twice weekly relative to control; type: functional; settings: read-out: TGI

Structure (SMILES): O=C(O)c1ccc(CN2CCC(CN[C@@H]3C[C@H]3c3ccccc3)CC2)cc1 [GSK2879552]
- Activity [1]: 0.66
- fold change (FC) [2]: 0.64
- inhibition [3]: Dose-Dependent Effect
- Activity [4]: 0.02
- fold change (FC) [5]: 0.75
- inhibition [6]: Dose-Dependent Effect
- Activity [7]: 0.43
- Activity [8]: 0.77
- AUC(0-inf) [9]: 2690 ng·h/mL
- Activity [10]: 1.13
- Activity [11]: 0.24
- inhibition [12]: Dose-Dependent Effect
- fold change (FC) [13]: 1.24
- Activity [14]: inactive
- Activity [15]: Toxic
- Activity [16]: inactive
- Activity [17]: 0.03
- fold change (FC) [18]: 1.66
- Activity [19]: inactive
- fold change (FC) [20]: 1.62
- Activity [21]: 0.06
- Activity [22]: 1.02
- Activity [23]: 0.91
- Activity [24]: 0.29
- Activity [25]: Non-Toxic
- Activity [26]: 1.2
- inhibition [27]: Dose-Dependent Effect
- AUC(0-t) [28]: 2320 ng·h/mL
- inhibition [29]: Dose-Dependent Effect
- Activity [30]: Toxic
- Activity [31]: 0.18
- Activity [32]: 0.89
- inhibition in vivo at 1.25 mg/kg [33]: 17%
- fold change (FC) [34]: 1.79
- fold change (FC) [35]: 2.25
- inhibition in vivo at 1.5 mg/kg [36]: 83%
